Test results reported in patent publication US20080227823A1, “AMIDE DERIVATIVES AS CALCIUM CHANNEL BLOCKERS” (priority 2007, published 2008).

What follows are compounds tested against T1, human α1G T-type channels (Homo sapiens, UniProt O43497) (assay: T-type calcium channel block, whole cell patch clamp in HEK cells). Details: measured at 1 μM drug, mainly non-inactivated protocol.
T1 construct: expressed in transfected cells; host or cells: HEK 293
T1 sequence (O43497 whole entry): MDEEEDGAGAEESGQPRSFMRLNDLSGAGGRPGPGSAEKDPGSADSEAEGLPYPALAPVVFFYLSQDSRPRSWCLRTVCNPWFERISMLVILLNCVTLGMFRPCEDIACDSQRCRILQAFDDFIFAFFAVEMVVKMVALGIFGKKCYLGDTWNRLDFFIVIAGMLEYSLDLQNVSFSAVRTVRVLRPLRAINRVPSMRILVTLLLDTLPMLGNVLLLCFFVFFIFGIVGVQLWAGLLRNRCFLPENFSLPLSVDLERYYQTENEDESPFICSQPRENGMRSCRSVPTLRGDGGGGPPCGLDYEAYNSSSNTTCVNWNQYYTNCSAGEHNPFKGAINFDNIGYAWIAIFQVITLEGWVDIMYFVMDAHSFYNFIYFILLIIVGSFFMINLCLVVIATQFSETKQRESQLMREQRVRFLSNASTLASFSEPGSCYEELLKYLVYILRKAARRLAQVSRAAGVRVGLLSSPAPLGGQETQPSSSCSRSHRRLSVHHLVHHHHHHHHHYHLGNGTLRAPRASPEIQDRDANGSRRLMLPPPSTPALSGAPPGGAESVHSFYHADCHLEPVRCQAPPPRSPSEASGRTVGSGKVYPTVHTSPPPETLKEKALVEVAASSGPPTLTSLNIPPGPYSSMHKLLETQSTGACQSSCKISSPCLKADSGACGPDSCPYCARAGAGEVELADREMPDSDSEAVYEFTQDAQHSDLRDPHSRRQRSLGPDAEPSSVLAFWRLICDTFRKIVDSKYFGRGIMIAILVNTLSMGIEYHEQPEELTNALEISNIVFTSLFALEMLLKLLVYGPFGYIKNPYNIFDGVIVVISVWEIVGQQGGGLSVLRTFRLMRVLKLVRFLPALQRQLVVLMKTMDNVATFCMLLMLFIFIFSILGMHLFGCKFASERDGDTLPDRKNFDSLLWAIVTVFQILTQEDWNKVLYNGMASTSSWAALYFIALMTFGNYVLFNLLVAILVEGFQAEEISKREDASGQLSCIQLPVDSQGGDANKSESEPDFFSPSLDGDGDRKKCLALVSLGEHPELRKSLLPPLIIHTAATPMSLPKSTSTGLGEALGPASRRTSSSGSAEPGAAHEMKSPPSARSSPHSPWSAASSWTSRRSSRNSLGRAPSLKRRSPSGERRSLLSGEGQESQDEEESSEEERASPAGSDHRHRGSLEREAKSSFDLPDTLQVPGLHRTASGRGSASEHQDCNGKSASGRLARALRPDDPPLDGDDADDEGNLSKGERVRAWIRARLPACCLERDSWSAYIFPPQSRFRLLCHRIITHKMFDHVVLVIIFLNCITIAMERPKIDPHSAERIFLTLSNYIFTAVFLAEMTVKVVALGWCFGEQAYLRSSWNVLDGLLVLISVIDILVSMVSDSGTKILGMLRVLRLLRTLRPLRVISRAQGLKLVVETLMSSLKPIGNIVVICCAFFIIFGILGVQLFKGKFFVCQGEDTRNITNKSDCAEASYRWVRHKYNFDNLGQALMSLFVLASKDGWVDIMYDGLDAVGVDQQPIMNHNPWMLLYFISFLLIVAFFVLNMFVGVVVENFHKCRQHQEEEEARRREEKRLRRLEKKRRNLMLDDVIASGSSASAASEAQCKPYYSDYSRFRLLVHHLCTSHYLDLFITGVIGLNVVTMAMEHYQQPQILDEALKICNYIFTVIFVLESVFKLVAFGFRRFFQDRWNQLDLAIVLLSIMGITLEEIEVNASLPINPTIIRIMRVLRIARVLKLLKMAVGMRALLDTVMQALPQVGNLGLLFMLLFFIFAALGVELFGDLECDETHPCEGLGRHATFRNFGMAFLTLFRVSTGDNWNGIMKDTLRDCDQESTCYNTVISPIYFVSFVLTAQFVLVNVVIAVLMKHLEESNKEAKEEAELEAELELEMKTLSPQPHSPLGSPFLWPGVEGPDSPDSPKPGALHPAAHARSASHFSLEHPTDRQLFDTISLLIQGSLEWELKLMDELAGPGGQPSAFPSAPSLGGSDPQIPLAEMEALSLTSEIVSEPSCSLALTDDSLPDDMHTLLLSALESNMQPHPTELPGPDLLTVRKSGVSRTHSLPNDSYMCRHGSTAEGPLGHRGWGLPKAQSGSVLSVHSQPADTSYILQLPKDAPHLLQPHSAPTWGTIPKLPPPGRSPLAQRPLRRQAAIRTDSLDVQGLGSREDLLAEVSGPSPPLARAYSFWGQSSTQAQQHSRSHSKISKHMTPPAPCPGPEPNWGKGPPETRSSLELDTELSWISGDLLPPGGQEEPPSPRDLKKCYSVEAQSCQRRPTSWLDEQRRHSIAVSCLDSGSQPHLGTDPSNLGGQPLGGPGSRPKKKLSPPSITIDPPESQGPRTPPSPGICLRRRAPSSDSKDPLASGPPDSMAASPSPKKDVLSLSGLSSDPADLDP
Type: cell-based
Experimental: (§1) T-type calcium channel blocking activity was assayed in human embryonic kidney cells, HEK 293, stably transfected with the T-type calcium channel subunits. Briefly, cells were cultured in Dulbecco's modified eagle medium (DMEM) supplemented with 10% fetal bovine serum, 200 U/ml penicillin and 0.2 mg/ml streptomycin at 37° C. with 5% CO2. At 85% confluency cells were split with 0.25% trypsin/1 mM EDTA and plated at 10% confluency on glass coverslips. At 12 hours the medium was replaced and the cells stably transfected using a standard calcium phosphate protocol and the appropriate calcium channel cDNA's. Fresh DMEM was supplied and the cells transferred to 28° C./5% CO2. Cells were incubated for 1 to 2 days prior to whole cell recording.
(§2) Standard patch-clamp techniques were employed to identify blockers of T-type currents. Briefly, previously described HEK cell lines stably expressing human α1G, α1H and α1I T-type channels were used for all the recordings (passage #: 4-20, 37° C., 5% CO2). Whole cell patch clamp experiments were performed using an Axopatch 200B amplifier (Axon Instruments, Burlingame, Calif.) linked to a personal computer equipped with pCLAMP software. Data were analyzed using Clampfit (Axon Instruments) and SigmaPlot 4.0 (Jandel Scientific). To obtain T-type currents, plastic dishes containing semi-confluent cells were positioned on the stage of a ZEISS AXIOVERT S100 microscope after replacing the culture medium with external solution (see below). Whole-cell patches were obtained using pipettes (borosilicate glass with filament, O.D.: 1.5 mm, I.D.: 0.86 mm, 10 cm length), fabricated on a SUTTER P-97 puller with resistance values of ˜5 MΩ (see below for internal solution).
(§3) T-type currents were reliably obtained by using two voltage protocols: • (1) “non-inactivating”, and • (2) “inactivation”
(§4) In the non-inactivating protocol, the holding potential is set at −110 mV and with a pre-pulse at −100 mV for 1 second prior to the test pulse at −40 mV for 50 ms. In the inactivation protocol, the pre-pulse is at approximately −85 mV for 1 second, which inactivates about 15% of the T-type channels.
(§5) Test compounds were dissolved in external solution, 0.1-0.01% DMSO. After 10 min rest, they were applied by gravity close to the cell using a WPI microfil tubing. The “non-inactivated” pre-pulse was used to examine the resting block of a compound. The “inactivated” protocol was employed to study voltage-dependent block. However, the initial data shown below were mainly obtained using the non-inactivated protocol only. Kd values are shown for various compounds of the invention in Table 4 measured at 1 μM for the drug of interest except for compound 18 which was measured at 200 nM.
O=C(/C=C/c1ccc(F)cc1)NC1(C(=O)Nc2cc(C(F)(F)F)cc(C(F)(F)F)c2)CCN(C2CCOCC2)CC1 [Compound 54, (E)-N-(3,5-bis(trifluoromethyl)phenyl)-4-(3-(4-fluorophenyl)acrylamido)-1-(tetrahydro-2H-pyran-4-yl)piperidine-4-carboxamide] was tested, and the Kd was 0.21 µM. Work on O=C(/C=C/c1ccc(F)cc1)NC1(C(=O)Nc2cc(C(F)(F)F)cc(C(F)(F)F)c2)CCN(c2ncccn2)CC1 [Compound 52, (E)-N-(3,5-bis(trifluoromethyl)phenyl)-4-(3-(4-fluorophenyl)acrylamido)-1-(pyrimidin-2-yl)piperidine-4-carboxamide] yielded a Kd of 0.16 µM. In the case of O=C(NCCc1c[nH]c2ccc(F)cc12)C1CCCN1C(=O)/C=C/c1ccc(F)c(Br)c1 (stereo in doubt) [Compound 19, (R,E)-1-(3-(3-bromo-4-fluorophenyl)acryloyl)-N-(2-(5-fluoro-1H-indol-3-yl)ethyl)pyrrolidine-2-carboxamide], the Kd is reported as 1.35 µM. NC(=O)CN1CCC(NC(=O)/C=C/c2ccc(F)cc2)(C(=O)Nc2cc(C(F)(F)F)cc(C(F)(F)F)c2)CC1 [Compound 62, (E)-1-(2-amino-2-oxoethyl)-N-(3,5-bis(trifluoromethyl)phenyl)-4-(3-(4-fluorophenyl)acrylamido)piperidine-4-carboxamide] gave a Kd of 0.28 µM. In the case of Cc1cc(/C=C/C(=O)NC2(C(=O)Nc3cc(C(F)(F)F)cc(C(F)(F)F)c3)CCN(C)CC2)ccc1F [Compound 43, (E)-N-(3,5-bis(trifluoromethyl)phenyl)-4-(3-(4-fluoro-3-methylphenyl)acrylamido)-1-methylpiperidine-4-carboxamide], the Kd is reported as 0.08 µM. With CN(CCc1c[nH]c2ccc(F)cc12)C(=O)C1(NC(=O)/C=C/c2ccc(F)cc2)CCNCC1 [Compound 49, (E)-N-(2-(5-fluoro-1H-indol-3-yl)ethyl)-4-(3-(4-fluorophenyl)acrylamido)-N-methylpiperidine-4-carboxamide] the Kd was 0.58 µM. In the case of CCNC(=O)N1CCC(NC(=O)/C=C/c2ccc(F)c(Br)c2)(C(=O)NCCc2c[nH]c3ccc(F)cc23)CC1 [Compound 26, (E)-4-(3-(3-bromo-4-fluorophenyl)acrylamido)-N1-ethyl-N4-(2-(5-fluoro-1H-indol-3-yl)ethyl)piperidine-1,4-dicarboxamide], the Kd is reported as 0.55 µM. O=C(/C=C/c1ccc(F)c(Br)c1)NC1(C(=O)NCCc2c[nH]c3ccc(F)cc23)CCOCC1 [Compound 16, (E)-4-(3-(3-bromo-4-fluorophenyl)acrylamido)-N-(2-(5-fluoro-1H-indol-3-yl)ethyl)tetrahydro-2H-pyran-4-carboxamide] was tested, and the Kd was 0.43 µM. For CN1CCC(NC(=O)/C=C/c2ccc(F)cc2)(C(=O)Nc2cc(C(F)(F)F)cc(C(F)(F)F)c2)CC1 [Compound 42, (E)-N-(3,5-bis(trifluoromethyl)phenyl)-4-(3-(4-fluorophenyl)acrylamido)-1-methylpiperidine-4-carboxamide], the Kd was 0.22 µM. O=C(/C=C/c1ccc(F)cc1)NC1(C(=O)Nc2cc(C(F)(F)F)cc(C(F)(F)F)c2)CCC(O)CC1 (stereo not drawn) [Compound 56, (E)-N-(3,5-bis(trifluoromethyl)phenyl)-1-(3-(4-fluorophenyl)acrylamido)-4-hydroxycyclohexanecarboxamide] showed a Kd of 1.06 µM. With NCC(=O)N1CCC(NC(=O)/C=C/c2ccc(F)cc2)(C(=O)Nc2cc(C(F)(F)F)cc(C(F)(F)F)c2)CC1 [Compound 63, (E)-1-(2-aminoacetyl)-N-(3,5-bis(trifluoromethyl)phenyl)-4-(3-(4-fluorophenyl)acrylamido)piperidine-4-carboxamide] the Kd was 0.09 µM. Work on CN(CCc1c[nH]c2ccc(F)cc12)C(=O)C1(NC(=O)/C=C/c2ccc(F)cc2)CCN(CC(N)=O)CC1 [Compound 65, (E)-1-(2-amino-2-oxoethyl)-N-(2-(5-fluoro-1H-indol-3-yl)ethyl)-4-(3-(4-fluorophenyl)acrylamido)-N-methylpiperidine-4-carboxamide] yielded a Kd of 2.57 µM. COCCC(=O)N1CCC(NC(=O)/C=C/c2ccc(F)c(Br)c2)(C(=O)NCCc2c[nH]c3ccc(F)cc23)CC1 [Compound 25, (E)-4-(3-(3-bromo-4-fluorophenyl)acrylamido)-N-(2-(5-fluoro-1H-indol-3-yl)ethyl)-1-(3-methoxypropanoyl)piperidine-4-carboxamide] showed a Kd of 5.37 µM. In the case of CC(C)(O)C(=O)N1CCC(NC(=O)/C=C/c2ccc(F)cc2)(C(=O)Nc2cc(C(F)(F)F)cc(C(F)(F)F)c2)CC1 [Compound 66, (E)-N-(3,5-bis(trifluoromethyl)phenyl)-4-(3-(4-fluorophenyl)acrylamido)-1-(2-hydroxy-2-methylpropanoyl)piperidine-4-carboxamide], the Kd is reported as 1.63 µM. Work on O=C(/C=C/c1ccc(F)c(F)c1)NC1(C(=O)Nc2ccccc2Oc2ccccc2)CCNCC1 [Compound 50, (E)-4-(3-(3,4-difluorophenyl)acrylamido)-N-(2-phenoxyphenyl)piperidine-4-carboxamide] yielded a Kd of 0.08 µM. For CC(=O)N1CCC(NC(=O)/C=C/c2ccc(F)c(Br)c2)(C(=O)NCCc2c[nH]c3ccc(F)cc23)CC1 [Compound 21, (E)-1-acetyl-4-(3-(3-bromo-4-fluorophenyl)acrylamido)-N-(2-(5-fluoro-1H-indol-3-yl)ethyl)piperidine-4-carboxamide], the Kd was 2.62 µM. Work on O=C(/C=C/c1ccc(F)c(F)c1)NC1(C(=O)Nc2ccccc2)CCNCC1 [Compound 34, (E)-4-(3-(3,4-difluorophenyl)acrylamido)-N-phenylpiperidine-4-carboxamide] yielded a Kd of 3.29 µM. With CN(CCc1c[nH]c2ccc(F)cc12)C(=O)C1(NC(=O)/C=C/c2ccc(F)cc2)CCN(C(=O)CN)CC1 [Compound 67, (E)-1-(2-aminoacetyl)-N-(2-(5-fluoro-1H-indol-3-yl)ethyl)-4-(3-(4-fluorophenyl)acrylamido)-N-methylpiperidine-4-carboxamide] the Kd was 1.02 µM. O=C(/C=C/c1ccc(F)cc1)NC1(C(=O)Nc2ccccc2C(F)(F)F)CCNCC1 [Compound 46, (E)-4-(3-(4-fluorophenyl)acrylamido)-N-(2-(trifluoromethyl)phenyl)piperidine-4-carboxamide] was tested, and the Kd was 14.6 µM. Work on COCCOC1CCC(NC(=O)/C=C/c2ccc(F)cc2)(C(=O)Nc2cc(C(F)(F)F)cc(C(F)(F)F)c2)CC1 (stereo not drawn) [Compound 61, (E)-N-(3,5-bis(trifluoromethyl)phenyl)-1-(3-(4-fluorophenyl)acrylamido)-4-(2-methoxyethoxy)cyclohexanecarboxamide] yielded a Kd of 0.99 µM. COCCN1CCC(NC(=O)/C=C/c2ccc(F)cc2)(C(=O)Nc2cc(C(F)(F)F)cc(C(F)(F)F)c2)CC1 [Compound 57, (E)-N-(3,5-bis(trifluoromethyl)phenyl)-4-(3-(4-fluorophenyl)acrylamido)-1-(2-methoxyethyl)piperidine-4-carboxamide] gave a Kd of 0.13 µM. CC(C)(O)CN1CCC(NC(=O)/C=C/c2ccc(F)cc2)(C(=O)NCCc2c[nH]c3ccc(F)cc23)CC1 [Compound 69, (E)-N-(2-(5-fluoro-1H-indol-3-yl)ethyl)-4-(3-(4-fluorophenyl)acrylamido)-1-(2-hydroxy-2-methylpropyl)piperidine-4-carboxamide] gave a Kd of 3.63 µM. Work on O=C(/C=C/c1ccc(F)cc1)NC1(C(=O)Nc2cccc(C(F)(F)F)c2)CCNCC1 [Compound 33, (E)-4-(3-(4-fluorophenyl)acrylamido)-N-(3-(trifluoromethyl)phenyl)piperidine-4-carboxamide] yielded a Kd of 2.45 µM.

Each compound was assayed against T2, human α1H T-type channels (Homo sapiens, UniProt O95180) in the same assay as above. Details: measured at 1 μM drug, mainly non-inactivated protocol.
T2 construct: expressed in transfected cells; host or cells: HEK 293
T2 sequence (O95180 whole entry): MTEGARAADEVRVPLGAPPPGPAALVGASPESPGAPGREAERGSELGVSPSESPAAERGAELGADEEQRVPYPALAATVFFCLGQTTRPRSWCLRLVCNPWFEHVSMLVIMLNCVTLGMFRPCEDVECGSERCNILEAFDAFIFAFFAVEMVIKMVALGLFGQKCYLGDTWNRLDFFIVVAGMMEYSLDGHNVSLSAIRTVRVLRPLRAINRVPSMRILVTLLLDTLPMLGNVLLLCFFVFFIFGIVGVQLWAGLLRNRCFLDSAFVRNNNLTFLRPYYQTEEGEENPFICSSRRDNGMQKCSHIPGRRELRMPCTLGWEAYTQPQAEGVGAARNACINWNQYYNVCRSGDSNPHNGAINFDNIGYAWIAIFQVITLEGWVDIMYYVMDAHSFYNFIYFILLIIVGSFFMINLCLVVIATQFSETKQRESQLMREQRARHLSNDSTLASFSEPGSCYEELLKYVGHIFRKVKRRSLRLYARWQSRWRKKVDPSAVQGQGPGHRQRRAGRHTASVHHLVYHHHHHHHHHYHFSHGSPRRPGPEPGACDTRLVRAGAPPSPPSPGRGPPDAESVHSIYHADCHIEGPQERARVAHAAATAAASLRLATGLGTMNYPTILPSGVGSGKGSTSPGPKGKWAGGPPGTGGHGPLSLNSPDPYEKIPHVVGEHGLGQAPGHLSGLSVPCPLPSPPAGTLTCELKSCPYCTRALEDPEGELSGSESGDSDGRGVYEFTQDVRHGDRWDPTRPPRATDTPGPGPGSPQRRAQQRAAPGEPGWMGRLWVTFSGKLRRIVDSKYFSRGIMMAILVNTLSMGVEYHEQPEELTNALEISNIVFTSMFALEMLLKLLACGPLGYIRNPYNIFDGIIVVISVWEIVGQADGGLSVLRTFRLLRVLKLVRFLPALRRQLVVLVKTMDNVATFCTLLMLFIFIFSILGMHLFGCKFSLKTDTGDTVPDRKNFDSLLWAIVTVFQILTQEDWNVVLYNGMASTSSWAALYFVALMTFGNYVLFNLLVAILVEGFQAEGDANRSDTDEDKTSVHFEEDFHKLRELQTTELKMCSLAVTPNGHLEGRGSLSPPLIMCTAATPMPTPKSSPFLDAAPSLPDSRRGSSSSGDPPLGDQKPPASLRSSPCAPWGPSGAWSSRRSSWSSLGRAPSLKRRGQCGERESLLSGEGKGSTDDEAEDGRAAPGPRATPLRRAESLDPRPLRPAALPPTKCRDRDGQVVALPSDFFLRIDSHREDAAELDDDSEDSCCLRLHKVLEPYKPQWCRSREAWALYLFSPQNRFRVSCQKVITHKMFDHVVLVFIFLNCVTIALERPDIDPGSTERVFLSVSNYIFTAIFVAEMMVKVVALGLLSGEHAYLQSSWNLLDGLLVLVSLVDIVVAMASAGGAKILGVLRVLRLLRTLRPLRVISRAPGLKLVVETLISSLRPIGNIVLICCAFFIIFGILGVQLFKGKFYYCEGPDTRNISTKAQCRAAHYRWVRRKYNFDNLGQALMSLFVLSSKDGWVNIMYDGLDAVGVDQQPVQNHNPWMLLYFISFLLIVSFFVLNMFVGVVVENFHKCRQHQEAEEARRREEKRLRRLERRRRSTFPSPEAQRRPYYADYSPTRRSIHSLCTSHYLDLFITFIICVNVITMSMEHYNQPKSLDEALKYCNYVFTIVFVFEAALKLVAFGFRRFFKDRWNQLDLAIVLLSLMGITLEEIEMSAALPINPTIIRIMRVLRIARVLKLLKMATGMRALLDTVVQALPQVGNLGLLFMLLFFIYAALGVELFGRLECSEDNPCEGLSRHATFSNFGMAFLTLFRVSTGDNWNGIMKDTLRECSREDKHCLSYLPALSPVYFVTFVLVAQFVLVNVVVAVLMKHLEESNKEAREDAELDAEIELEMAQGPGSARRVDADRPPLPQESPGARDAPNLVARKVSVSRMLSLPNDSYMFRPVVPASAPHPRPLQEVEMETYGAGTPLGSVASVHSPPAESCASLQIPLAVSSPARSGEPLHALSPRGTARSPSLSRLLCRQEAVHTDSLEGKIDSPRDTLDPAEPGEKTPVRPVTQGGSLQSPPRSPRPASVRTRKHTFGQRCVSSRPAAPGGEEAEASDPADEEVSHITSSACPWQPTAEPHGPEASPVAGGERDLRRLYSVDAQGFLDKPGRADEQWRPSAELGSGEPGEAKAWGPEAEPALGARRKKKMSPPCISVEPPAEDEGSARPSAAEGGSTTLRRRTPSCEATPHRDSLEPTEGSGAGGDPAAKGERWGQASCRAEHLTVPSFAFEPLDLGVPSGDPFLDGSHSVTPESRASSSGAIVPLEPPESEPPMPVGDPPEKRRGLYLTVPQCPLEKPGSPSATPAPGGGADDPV
Type: cell-based
Experimental: as §1, §2, §3, §4, §5
O=C(/C=C/c1ccc(F)cc1)NC1(C(=O)Nc2cc(C(F)(F)F)cc(C(F)(F)F)c2)CCN(C2CCOCC2)CC1 [Compound 54, (E)-N-(3,5-bis(trifluoromethyl)phenyl)-4-(3-(4-fluorophenyl)acrylamido)-1-(tetrahydro-2H-pyran-4-yl)piperidine-4-carboxamide] showed a Kd of 6.32 µM. Compound Cc1cc(/C=C/C(=O)NC2(C(=O)Nc3cc(C(F)(F)F)cc(C(F)(F)F)c3)CCN(C)CC2)ccc1F [Compound 43, (E)-N-(3,5-bis(trifluoromethyl)phenyl)-4-(3-(4-fluoro-3-methylphenyl)acrylamido)-1-methylpiperidine-4-carboxamide] has a Kd of 1.12 µM. CN1CCC(NC(=O)/C=C/c2ccc(F)cc2)(C(=O)Nc2cc(C(F)(F)F)cc(C(F)(F)F)c2)CC1 [Compound 42, (E)-N-(3,5-bis(trifluoromethyl)phenyl)-4-(3-(4-fluorophenyl)acrylamido)-1-methylpiperidine-4-carboxamide] was tested, and the Kd was 41.9 µM. With O=C(/C=C/c1ccc(F)c(F)c1)NC1(C(=O)Nc2ccccc2Oc2ccccc2)CCNCC1 [Compound 50, (E)-4-(3-(3,4-difluorophenyl)acrylamido)-N-(2-phenoxyphenyl)piperidine-4-carboxamide] the Kd was 2.97 µM.
